In ChEMBL document CHEMBL5465560, “Selectivity Literature for EUbOPEN Chemogenomic Library” (2024):

Legend:
[1] = molecular target: Ribosomal protein S6 kinase alpha-2 (Homo sapiens) (UniProt Q15349); experiment: Selectivity interaction (KinomeScan (DiscoverX)) EUB0000045b RPS6KA2; conditions: at 10 µM
[2] = molecular target: T1, Megakaryocyte-associated tyrosine-protein kinase (Homo sapiens) (UniProt P42679); experiment: Selectivity interaction (KinomeScan (DiscoverX)) EUB0000045b MATK
T1 sequence (whole entry): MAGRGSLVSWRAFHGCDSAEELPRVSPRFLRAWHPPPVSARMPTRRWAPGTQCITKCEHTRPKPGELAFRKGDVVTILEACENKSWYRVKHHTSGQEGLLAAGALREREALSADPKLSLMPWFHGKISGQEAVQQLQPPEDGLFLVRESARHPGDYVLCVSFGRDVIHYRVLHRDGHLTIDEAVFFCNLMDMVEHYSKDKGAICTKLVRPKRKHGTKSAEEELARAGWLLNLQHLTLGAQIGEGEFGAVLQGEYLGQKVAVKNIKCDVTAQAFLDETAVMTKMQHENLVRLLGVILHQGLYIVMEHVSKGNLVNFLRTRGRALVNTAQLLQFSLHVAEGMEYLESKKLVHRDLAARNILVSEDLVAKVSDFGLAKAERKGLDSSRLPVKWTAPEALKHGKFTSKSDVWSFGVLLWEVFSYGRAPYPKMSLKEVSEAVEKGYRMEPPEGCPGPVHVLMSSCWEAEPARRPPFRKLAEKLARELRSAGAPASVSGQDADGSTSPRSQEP

[3] = molecular target: T2, Inhibitor of nuclear factor kappa-B kinase subunit alpha (Homo sapiens) (UniProt O15111); experiment: Selectivity interaction (Millipore kinase profiler) EUB0000124b CHUK; conditions: at 10 µM
T2 sequence (whole entry): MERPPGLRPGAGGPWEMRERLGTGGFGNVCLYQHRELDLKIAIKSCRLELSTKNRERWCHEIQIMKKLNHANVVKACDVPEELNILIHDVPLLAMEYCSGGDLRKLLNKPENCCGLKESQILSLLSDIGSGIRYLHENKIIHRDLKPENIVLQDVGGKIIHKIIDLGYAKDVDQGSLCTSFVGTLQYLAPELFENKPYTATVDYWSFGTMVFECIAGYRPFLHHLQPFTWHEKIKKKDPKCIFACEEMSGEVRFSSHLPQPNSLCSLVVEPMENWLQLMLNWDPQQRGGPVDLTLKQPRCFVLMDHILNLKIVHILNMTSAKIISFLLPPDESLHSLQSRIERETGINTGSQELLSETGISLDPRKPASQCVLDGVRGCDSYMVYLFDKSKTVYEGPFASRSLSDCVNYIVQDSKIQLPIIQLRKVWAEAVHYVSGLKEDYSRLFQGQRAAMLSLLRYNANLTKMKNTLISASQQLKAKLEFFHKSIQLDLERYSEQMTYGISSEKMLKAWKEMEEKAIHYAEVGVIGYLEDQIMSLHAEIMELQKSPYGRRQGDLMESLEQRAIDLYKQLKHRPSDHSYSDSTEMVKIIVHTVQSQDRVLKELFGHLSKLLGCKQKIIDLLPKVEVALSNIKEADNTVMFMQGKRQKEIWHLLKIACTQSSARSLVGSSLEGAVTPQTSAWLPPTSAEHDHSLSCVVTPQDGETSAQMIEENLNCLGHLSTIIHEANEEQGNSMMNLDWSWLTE

[4] = molecular target: Glutamate receptor ionotropic, NMDA 2B (Homo sapiens) (UniProt Q13224); experiment: Selectivity interaction (Panel of kinases, GPCRs, ion channels and transporters (enzymatic assay)) EUB0000223bCl GRIN2B
[5] = molecular target: T3, Kinase suppressor of Ras 2 (Homo sapiens) (UniProt Q6VAB6); experiment: Selectivity interaction (ActivX KiNativ screen (ex vivo kinase selectivity in human PBMCs)) EUB0001619a KSR2; assay type: cell-based; conditions: PBMC, at 1 µM
T3 sequence (whole entry): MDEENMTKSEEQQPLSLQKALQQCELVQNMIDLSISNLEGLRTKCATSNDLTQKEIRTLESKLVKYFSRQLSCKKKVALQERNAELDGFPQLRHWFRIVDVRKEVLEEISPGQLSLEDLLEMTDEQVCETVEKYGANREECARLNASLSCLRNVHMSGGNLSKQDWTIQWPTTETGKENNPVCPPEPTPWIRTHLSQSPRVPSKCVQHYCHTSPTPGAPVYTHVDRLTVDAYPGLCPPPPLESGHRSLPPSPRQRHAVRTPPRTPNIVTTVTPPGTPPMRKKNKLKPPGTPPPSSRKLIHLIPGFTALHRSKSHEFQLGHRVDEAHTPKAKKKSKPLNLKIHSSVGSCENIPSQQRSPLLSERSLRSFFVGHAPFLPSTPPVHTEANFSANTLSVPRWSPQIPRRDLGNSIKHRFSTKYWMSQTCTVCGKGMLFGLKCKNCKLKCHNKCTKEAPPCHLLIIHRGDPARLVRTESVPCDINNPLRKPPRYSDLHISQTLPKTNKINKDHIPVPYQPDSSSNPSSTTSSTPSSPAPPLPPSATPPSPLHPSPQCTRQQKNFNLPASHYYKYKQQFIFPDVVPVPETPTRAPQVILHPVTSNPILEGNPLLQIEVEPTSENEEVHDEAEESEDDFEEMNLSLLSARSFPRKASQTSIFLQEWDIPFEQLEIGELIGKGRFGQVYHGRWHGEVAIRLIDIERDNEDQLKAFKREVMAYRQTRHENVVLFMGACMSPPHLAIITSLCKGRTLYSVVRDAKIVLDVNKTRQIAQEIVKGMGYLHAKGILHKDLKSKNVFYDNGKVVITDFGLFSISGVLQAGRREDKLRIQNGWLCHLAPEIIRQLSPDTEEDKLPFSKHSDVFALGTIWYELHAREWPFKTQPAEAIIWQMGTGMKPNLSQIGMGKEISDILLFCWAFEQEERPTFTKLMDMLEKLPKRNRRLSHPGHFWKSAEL

[6] = molecular target: Serine/threonine-protein kinase 24 (Homo sapiens) (UniProt Q9Y6E0); experiment: Selectivity interaction (KinomeScan (DiscoverX)) EUB0000607a STK24; conditions: at 10 µM
Sequence of Serine/threonine-protein kinase 24 (Homo sapiens) (Q9Y6E0 whole entry, looked up): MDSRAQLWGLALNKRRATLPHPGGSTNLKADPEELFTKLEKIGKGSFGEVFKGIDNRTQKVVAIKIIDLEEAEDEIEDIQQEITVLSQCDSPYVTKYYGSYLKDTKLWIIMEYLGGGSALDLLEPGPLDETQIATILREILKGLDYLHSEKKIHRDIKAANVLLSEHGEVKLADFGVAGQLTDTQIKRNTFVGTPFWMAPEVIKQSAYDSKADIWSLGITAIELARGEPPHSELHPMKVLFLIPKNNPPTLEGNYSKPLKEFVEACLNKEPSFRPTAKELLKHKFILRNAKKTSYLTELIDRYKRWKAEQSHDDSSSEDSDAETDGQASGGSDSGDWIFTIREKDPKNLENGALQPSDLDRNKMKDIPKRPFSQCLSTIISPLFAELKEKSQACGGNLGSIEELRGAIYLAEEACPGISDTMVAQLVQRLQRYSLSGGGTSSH

[7] = molecular target: Serine/threonine-protein kinase 24 (Homo sapiens) (UniProt Q9Y6E0); experiment: Selectivity interaction (Kinase panel (DSF assay)) EUB0001558a STK24
[8] = molecular target: Fibroblast growth factor receptor 1 (Homo sapiens, UniProt P11362); experiment: Selectivity interaction (KinomeScan (DiscoverX)) EUB0000618a FGFR1; conditions: at 10 µM
Sequence of Fibroblast growth factor receptor 1 (P11362 22-822 limits assumed): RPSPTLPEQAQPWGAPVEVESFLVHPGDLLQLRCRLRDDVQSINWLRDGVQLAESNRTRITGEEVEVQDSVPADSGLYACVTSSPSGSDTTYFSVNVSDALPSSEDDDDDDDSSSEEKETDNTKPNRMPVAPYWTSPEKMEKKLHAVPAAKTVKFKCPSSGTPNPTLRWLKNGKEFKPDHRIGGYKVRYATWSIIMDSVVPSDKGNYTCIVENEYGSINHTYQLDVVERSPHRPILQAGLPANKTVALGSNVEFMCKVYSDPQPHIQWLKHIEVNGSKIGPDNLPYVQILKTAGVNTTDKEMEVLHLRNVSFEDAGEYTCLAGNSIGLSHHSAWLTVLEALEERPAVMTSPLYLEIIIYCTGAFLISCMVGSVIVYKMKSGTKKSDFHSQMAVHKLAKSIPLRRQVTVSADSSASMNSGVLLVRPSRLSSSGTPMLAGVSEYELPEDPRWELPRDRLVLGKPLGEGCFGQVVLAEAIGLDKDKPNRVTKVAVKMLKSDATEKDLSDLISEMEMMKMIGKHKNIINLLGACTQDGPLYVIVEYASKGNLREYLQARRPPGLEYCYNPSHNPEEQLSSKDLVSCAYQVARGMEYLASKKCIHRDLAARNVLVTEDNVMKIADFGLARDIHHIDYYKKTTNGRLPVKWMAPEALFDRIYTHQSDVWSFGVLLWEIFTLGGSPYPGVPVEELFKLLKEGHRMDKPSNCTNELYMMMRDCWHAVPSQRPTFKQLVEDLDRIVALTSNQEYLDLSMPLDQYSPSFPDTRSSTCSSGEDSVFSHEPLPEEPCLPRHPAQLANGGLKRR

[9] = molecular target: Serine/threonine-protein kinase OSR1 (Homo sapiens) (UniProt O95747); experiment: Selectivity interaction (KinomeScan (DiscoverX)) EUB0000655a OXSR1; conditions: at 10 µM
Sequence of Serine/threonine-protein kinase OSR1 (Homo sapiens) (O95747 2-527 limits assumed): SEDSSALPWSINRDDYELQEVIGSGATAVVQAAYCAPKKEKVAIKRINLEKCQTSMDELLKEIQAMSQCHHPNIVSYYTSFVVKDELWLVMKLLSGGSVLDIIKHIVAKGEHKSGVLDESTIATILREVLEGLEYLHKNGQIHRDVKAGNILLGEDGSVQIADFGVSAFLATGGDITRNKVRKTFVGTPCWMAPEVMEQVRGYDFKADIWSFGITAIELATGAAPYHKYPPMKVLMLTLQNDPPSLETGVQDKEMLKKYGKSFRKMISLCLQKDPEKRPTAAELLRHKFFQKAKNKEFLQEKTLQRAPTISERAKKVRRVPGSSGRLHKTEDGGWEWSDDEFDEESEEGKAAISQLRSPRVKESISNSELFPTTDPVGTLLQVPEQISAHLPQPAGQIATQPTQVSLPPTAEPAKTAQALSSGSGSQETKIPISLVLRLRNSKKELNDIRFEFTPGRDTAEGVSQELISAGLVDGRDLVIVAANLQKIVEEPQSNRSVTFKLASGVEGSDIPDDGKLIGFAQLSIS

[10] = molecular target: Calcium/calmodulin-dependent protein kinase type II subunit beta (Homo sapiens) (UniProt Q13554); experiment: Selectivity interaction (KinomeScan (DiscoverX)) EUB0000655a CAMK2B; conditions: at 10 µM
Sequence of Calcium/calmodulin-dependent protein kinase type II subunit beta (Homo sapiens) (Q13554 whole entry): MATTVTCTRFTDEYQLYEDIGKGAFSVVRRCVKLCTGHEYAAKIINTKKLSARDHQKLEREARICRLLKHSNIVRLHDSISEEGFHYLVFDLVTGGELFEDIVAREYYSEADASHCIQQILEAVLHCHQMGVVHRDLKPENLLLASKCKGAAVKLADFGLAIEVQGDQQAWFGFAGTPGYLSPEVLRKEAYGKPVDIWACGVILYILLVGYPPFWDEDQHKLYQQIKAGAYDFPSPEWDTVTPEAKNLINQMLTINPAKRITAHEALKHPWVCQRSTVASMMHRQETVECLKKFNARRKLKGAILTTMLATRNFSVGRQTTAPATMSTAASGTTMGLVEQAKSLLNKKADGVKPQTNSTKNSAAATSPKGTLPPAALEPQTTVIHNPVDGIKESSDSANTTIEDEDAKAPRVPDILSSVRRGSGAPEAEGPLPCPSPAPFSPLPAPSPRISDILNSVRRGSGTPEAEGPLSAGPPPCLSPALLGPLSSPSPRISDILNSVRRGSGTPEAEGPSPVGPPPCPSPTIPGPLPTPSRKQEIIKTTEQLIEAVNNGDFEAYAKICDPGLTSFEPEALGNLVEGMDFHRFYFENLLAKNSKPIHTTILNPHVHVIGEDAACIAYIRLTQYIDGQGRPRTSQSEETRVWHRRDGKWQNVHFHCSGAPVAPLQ

[11] = molecular target: Casein kinase II subunit alpha' (Homo sapiens) (UniProt P19784); experiment: Selectivity interaction (KinomeScan (DiscoverX)) EUB0000092b CSNK2A2; conditions: at 10 µM
Sequence of Casein kinase II subunit alpha' (Homo sapiens) (P19784 whole entry, looked up): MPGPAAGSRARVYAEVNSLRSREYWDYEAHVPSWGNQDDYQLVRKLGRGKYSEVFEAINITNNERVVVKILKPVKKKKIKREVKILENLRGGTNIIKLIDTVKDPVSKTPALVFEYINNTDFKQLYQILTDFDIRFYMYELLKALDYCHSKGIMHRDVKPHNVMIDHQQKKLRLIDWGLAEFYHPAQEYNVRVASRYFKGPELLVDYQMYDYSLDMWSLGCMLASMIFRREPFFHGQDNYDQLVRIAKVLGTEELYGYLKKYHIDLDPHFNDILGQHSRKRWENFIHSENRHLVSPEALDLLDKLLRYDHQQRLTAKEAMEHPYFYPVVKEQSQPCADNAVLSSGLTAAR

[12] = molecular target: Serine/threonine-protein kinase 26 (Homo sapiens, UniProt Q9P289); experiment: Selectivity interaction (Ambit KINOMEscan and KiNATiv profiling in Jurkat cells) EUB0000090b STK26; assay type: cell-based; conditions: at 1 µM
Sequence of Serine/threonine-protein kinase 26 (Q9P289 2-416 limits assumed): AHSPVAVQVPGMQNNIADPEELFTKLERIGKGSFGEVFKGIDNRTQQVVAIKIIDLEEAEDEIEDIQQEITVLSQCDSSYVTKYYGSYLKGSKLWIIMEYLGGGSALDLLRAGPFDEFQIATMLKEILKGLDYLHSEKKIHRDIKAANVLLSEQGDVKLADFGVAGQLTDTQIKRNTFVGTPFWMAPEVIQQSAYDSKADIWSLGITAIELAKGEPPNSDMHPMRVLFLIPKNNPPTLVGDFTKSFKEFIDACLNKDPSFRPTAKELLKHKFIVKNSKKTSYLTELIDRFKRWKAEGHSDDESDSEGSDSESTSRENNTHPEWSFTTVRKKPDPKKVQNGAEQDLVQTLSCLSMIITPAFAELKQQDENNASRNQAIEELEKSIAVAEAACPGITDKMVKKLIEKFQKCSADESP

Sequence of Ribosomal protein S6 kinase alpha-2 (Homo sapiens) (Q15349 whole entry): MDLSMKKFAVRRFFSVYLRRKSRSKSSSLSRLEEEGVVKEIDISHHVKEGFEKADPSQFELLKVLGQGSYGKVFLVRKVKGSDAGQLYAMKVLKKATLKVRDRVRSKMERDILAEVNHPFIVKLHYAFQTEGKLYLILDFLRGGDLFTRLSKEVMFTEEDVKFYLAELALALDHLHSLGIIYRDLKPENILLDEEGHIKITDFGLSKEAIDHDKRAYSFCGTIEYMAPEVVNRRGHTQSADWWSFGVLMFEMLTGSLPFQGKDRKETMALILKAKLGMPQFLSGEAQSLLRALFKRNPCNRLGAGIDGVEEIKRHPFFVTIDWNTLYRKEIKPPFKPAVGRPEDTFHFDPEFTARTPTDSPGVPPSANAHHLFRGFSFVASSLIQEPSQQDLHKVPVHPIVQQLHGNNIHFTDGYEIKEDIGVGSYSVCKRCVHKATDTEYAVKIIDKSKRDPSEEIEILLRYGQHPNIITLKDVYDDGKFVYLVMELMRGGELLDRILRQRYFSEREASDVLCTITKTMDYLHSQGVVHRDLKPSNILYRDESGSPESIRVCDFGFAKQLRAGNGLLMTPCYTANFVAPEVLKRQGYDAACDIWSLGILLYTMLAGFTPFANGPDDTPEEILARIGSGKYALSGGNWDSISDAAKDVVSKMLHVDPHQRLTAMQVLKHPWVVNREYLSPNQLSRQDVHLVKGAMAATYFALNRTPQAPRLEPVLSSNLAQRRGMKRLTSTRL

SMILES: C=CC(=O)Nc1cc(-n2c(=O)ccc3cnc4ccc(-c5ccc(NS(C)(=O)=O)cc5)cc4c32)ccc1C
- % of control [1]: 78%
- % of control ([2]; at 1 µM): 92%
- % of control ([2]; at 10 µM): 95%

SMILES: CC(=O)Nc1cccc(-n2c(=O)n(C3CC3)c(=O)c3c(Nc4ccc(I)cc4F)n(C)c(=O)c(C)c32)c1
- % of control [3]: 123%

SMILES: COc1cc(C(=O)N2CC[C@@H](O)[C@@H](N)C2)cc2nc(-c3cc4ccccc4n3CC3CC3)n(C)c12
- pXC50 [4]: 4.8 M

SMILES: N#Cc1cccc(-c2c[nH]c3ncnc(N4CCOCC4)c23)c1
- % of inhibition [5]: 12%

SMILES: CNC(=O)Nc1ccc(-c2nc(N3CC4CCC(C3)O4)c3cnn(C4CCC5(CC4)OCCO5)c3n2)cc1
- % of control [6]: 96%

SMILES: CC(C)(O)[C@H](F)CN1Cc2cc(NC(=O)c3cnn4cccnc34)c(N3CCOCC3)cc2C1=O
- dTM [7]: 0.1 K

SMILES: O[C@H]1CC[C@H](Nc2ncc3nc(Nc4c(F)cc(F)cc4F)n([C@H]4CCOC4)c3n2)CC1
- % of control [8]: 69%

SMILES: CN(C)CCOc1ccc(-c2nc(-c3ccncc3)c(-c3ccc4c(c3)CC/C4=N\O)[nH]2)cc1
- % of control [9]: 100%
- % of control [10]: 98%

SMILES: CCC(=O)N1CCN(c2ccc(-n3c(=O)ccc4cnc5ccc(-c6cnc7ccccc7c6)cc5c43)cc2C(F)(F)F)CC1
- % of control [11]: 11%

SMILES: CN(C)C/C=C/C(=O)Nc1ccc(C(=O)N2CCCC(Nc3ncc(Cl)c(-c4c[nH]c5ccccc45)n3)C2)cc1 (stereo not drawn)
- % of control [12]: 88%
